ChEMBL document CHEMBL1201861, “Genomics of Drug Sensitity in Cancer screening data, Wellcome Trust Sanger Institute”

Experiments:
Test in all cases: cells
Type in all cases: functional, cell-based, Homo sapiens
SW1088 = conditions: sw1088;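 further: growth inhibition of human SW1088 cells, read out by a cell viability assay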
Description: SANGER: Inhibition of human SW1088 cell growth in a cell viability assay.

RT-112 = conditions: rt-112
Description: SANGER: Inhibition of human RT-112 cell growth in a cell viability assay.

KYSE-450 = conditions: kyse-450;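 further: cell growth inhibition measured by a viability assay in human KYSE-450 cells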
Description: SANGER: Inhibition of human KYSE-450 cell growth in a cell viability assay.

ARH-77 = conditions: arh-77;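 further: growth inhibition of ARH-77 cells, read out by a cell viability assay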
Description: SANGER: Inhibition of human ARH-77 cell growth in a cell viability assay.

NCI-H2405 = conditions: nci-h2405;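 further: growth inhibition of the human cell line, read out with a cell viability assay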
Description: SANGER: Inhibition of human NCI-H2405 cell growth in a cell viability assay.

P31-FUJ = conditions: p31-fuj;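 further: growth inhibition of P31-FUJ cells, read out with a viability assay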
Description: SANGER: Inhibition of human P31-FUJ cell growth in a cell viability assay.

CAL-39 = conditions: cal-39;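 further: cell viability assay measuring growth inhibition of CAL-39 cells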
Description: SANGER: Inhibition of human CAL-39 cell growth in a cell viability assay.

KARPAS-422 = conditions: karpas-422
Description: SANGER: Inhibition of human KARPAS-422 cell growth in a cell viability assay.

KYSE-140 = conditions: kyse-140;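 further: cell viability assay measuring growth inhibition in human KYSE-140 cells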
Description: SANGER: Inhibition of human KYSE-140 cell growth in a cell viability assay.

MG-63 = conditions: mg-63;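 further: growth inhibition of human MG-63 cells, read out with a cell viability assay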
Description: SANGER: Inhibition of human MG-63 cell growth in a cell viability assay.

SK-N-AS = conditions: sk-n-as;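 further: growth inhibition of human SK-N-AS cells, measured with a cell viability assay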
Description: SANGER: Inhibition of human SK-N-AS cell growth in a cell viability assay.

CAL-51 = conditions: cal-51;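 further: human CAL-51 cell line, growth inhibition read out via a cell viability assay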
Description: SANGER: Inhibition of human CAL-51 cell growth in a cell viability assay.

SW1710 = conditions: sw1710;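 further: growth inhibition of SW1710 cells, determined with a cell viability assay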
Description: SANGER: Inhibition of human SW1710 cell growth in a cell viability assay.

YKG-1 = conditions: ykg-1;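 further: cell growth inhibition, read out with a viability assay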
Description: SANGER: Inhibition of human YKG-1 cell growth in a cell viability assay.

JIYOYE = conditions: jiyoye
Description: SANGER: Inhibition of human JiyoyeP-2003 cell growth in a cell viability assay.

NCI-H1792 = conditions: nci-h1792;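 further: growth inhibition of human NCI-H1792 cells, read out as cell viability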
Description: SANGER: Inhibition of human NCI-H1792 cell growth in a cell viability assay.

ECC4 = conditions: ecc4;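 further: growth inhibition of ECC4 cells, read out with a cell viability assay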
Description: SANGER: Inhibition of human ECC4 cell growth in a cell viability assay.

FaDu = conditions: fadu;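 further: cell viability readout of growth inhibition in FaDu cells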
Description: SANGER: Inhibition of human FADU cell growth in a cell viability assay.

HTC-C3 = conditions: htc-c3;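 further: inhibition of cell growth, read out with a cell viability assay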
Description: SANGER: Inhibition of human HTC-C3 cell growth in a cell viability assay.

UACC-893 = conditions: uacc-893
Description: SANGER: Inhibition of human UACC-893 cell growth in a cell viability assay.

G-401 = conditions: g-401
Description: SANGER: Inhibition of human G-401 cell growth in a cell viability assay.

EB-3 = conditions: eb-3;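 further: human EB-3 cells, growth inhibition read out via a cell viability assay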
Description: SANGER: Inhibition of human EB-3 cell growth in a cell viability assay.

P12-Ichikawa = conditions: p12-ichikawa
NCI-H2122 = conditions: nci-h2122;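 further: growth inhibition of the cells, read out with a cell viability assay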
Description: SANGER: Inhibition of human NCI-H2122 cell growth in a cell viability assay.

NCI-H650 = conditions: nci-h650;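 further: growth inhibition of NCI-H650 cells, read out by a viability assay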
Description: SANGER: Inhibition of human NCI-H650 cell growth in a cell viability assay.

GDM-1 = conditions: gdm-1;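 further: cell viability readout used to measure growth inhibition of human GDM-1 cells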
Description: SANGER: Inhibition of human GDM-1 cell growth in a cell viability assay.

MC-IXC = conditions: mc-ixc;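 further: growth inhibition of MC-IXC cells, read out with a cell viability assay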
Description: SANGER: Inhibition of human MC-IXC cell growth in a cell viability assay.

HPAF-II = conditions: hpaf-ii;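 further: growth inhibition of HPAF-II cells, read out with a cell viability assay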
Description: SANGER: Inhibition of human HPAF-II cell growth in a cell viability assay.

LP-1 = conditions: lp-1;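 further: growth inhibition of human LP-1 cells, with the read-out taken from a cell viability assay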
Description: SANGER: Inhibition of human LP-1 cell growth in a cell viability assay.

SNU-C1 = conditions: snu-c1;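 further: growth inhibition of SNU-C1 human cells, read out by a cell viability assay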
Description: SANGER: Inhibition of human SNU-C1 cell growth in a cell viability assay.

YAPC = conditions: yapc;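 further: growth inhibition of YAPC cells, measured with a cell viability assay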
Description: SANGER: Inhibition of human YAPC cell growth in a cell viability assay.

LK-2 = conditions: lk-2;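 further: growth inhibition of LK-2 cells, read out with a viability assay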
Description: SANGER: Inhibition of human LK-2 cell growth in a cell viability assay.

NCI-H1793 = conditions: nci-h1793;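 further: cell growth inhibition, read out by a cell viability assay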
Description: SANGER: Inhibition of human NCI-H1793 cell growth in a cell viability assay.

NCI-H460 = conditions: nci-h460;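 further: cell viability assay scoring growth inhibition of human NCI-H460 cells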
Description: SANGER: Inhibition of human NCI-H460 cell growth in a cell viability assay.

H4 = conditions: h4
Description: SANGER: Inhibition of human H4 cell growth in a cell viability assay.

SW837 = conditions: sw837;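 further: growth inhibition of SW837 cells, determined with a cell viability assay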
Description: SANGER: Inhibition of human SW837 cell growth in a cell viability assay.

BOKU = conditions: boku;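 further: growth inhibition of the human BOKU cell line, read out by a cell viability assay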
Description: SANGER: Inhibition of human BOKU cell growth in a cell viability assay.

AGS = conditions: ags;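 further: growth inhibition of AGS cells, determined with a cell viability assay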
Description: SANGER: Inhibition of human AGS cell growth in a cell viability assay.

DMS-153 = conditions: dms-153
Description: SANGER: Inhibition of human DMS-153 cell growth in a cell viability assay.

769-P = conditions: 769-p
Description: SANGER: Inhibition of human 769-P cell growth in a cell viability assay.

NCI-H2009 = conditions: nci-h2009;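 further: cell viability assay measuring inhibition of NCI-H2009 cell growth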
Description: SANGER: Inhibition of human NCI-H2009 cell growth in a cell viability assay.

DK-MG = conditions: dk-mg;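 further: growth inhibition of DK-MG cells, read out with a cell viability assay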
Description: SANGER: Inhibition of human DK-MG cell growth in a cell viability assay.

CAL-27 = conditions: cal-27;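 further: Viability-based readout, IC50 reflecting inhibition of CAL-27 cell growth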
Description: SANGER: Inhibition of human CAL-27 cell growth in a cell viability assay.

HCC1806 = conditions: hcc1806;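 further: growth inhibition of the cancer cell line, determined with a cell viability assay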
Description: SANGER: Inhibition of human HCC1806 cell growth in a cell viability assay.

KMS-12-PE = conditions: kms-12-pe;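 further: growth inhibition of human KMS-12-PE cells, measured with a cell viability assay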
Description: SANGER: Inhibition of human KMS-12-PE cell growth in a cell viability assay.

ESS-1 = conditions: ess-1;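 further: growth inhibition of human ESS-1 cells, read out by a cell viability assay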
Description: SANGER: Inhibition of human ESS-1 cell growth in a cell viability assay.

MKN-45 = conditions: mkn-45;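 further: growth inhibition of human MKN-45 cells, measured with a cell viability assay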
Description: SANGER: Inhibition of human MKN45 cell growth in a cell viability assay.

CAL-72 = conditions: cal-72;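 further: cell viability assay measuring inhibition of proliferation in the CAL-72 cell line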
Description: SANGER: Inhibition of human CAL-72 cell growth in a cell viability assay.

Sequence BLEOMYCIN has an IC50 (SW1088) of 818 µM, an IC50 (RT-112) of 2.32 µM and an IC50 (KYSE-450) of 1.93 µM. The IC50 (ARH-77) was 0.105 µM, the IC50 (NCI-H2405) was 4.28 µM and the IC50 (P31-FUJ) was 460 µM. The IC50 (CAL-39) was 0.000315 µM, the IC50 (KARPAS-422) was 168 µM and the IC50 (KYSE-140) was 3.9 µM. For the same sequence, the IC50 (MG-63) was 1.49 µM, the IC50 (SK-N-AS) was 1950 µM and the IC50 (CAL-51) was 99 pM. For the same sequence, the IC50 (SW1710) was 0.295 µM, the IC50 (YKG-1) was 3.26 µM and the IC50 (JIYOYE) was 3.38 µM. The IC50 (NCI-H1792) was 2.57 µM, the IC50 (ECC4) was 56.7 µM and the IC50 (FaDu) was 5.14 µM. It also gave an IC50 (HTC-C3) of 77.8 µM, an IC50 (UACC-893) of 130 µM and an IC50 (G-401) of 3.29 µM. The IC50 (EB-3) was 21.8 µM, the IC50 (P12-Ichikawa) was 5.55 µM and the IC50 (NCI-H2122) was 0.51 µM. For the same sequence, the IC50 (NCI-H650) was 0.000587 µM, the IC50 (GDM-1) was 0.228 µM and the IC50 (MC-IXC) was 3 µM. For the same sequence, the IC50 (HPAF-II) was 233 µM, the IC50 (LP-1) was 307 µM and the IC50 (SNU-C1) was 82 µM. For the same sequence, the IC50 (YAPC) was 4190 µM, the IC50 (LK-2) was 1.69 µM and the IC50 (NCI-H1793) was 27.2 µM. For the same sequence, the IC50 (NCI-H460) was 4.76 µM, the IC50 (H4) was 0.321 µM and the IC50 (SW837) was 1.61 µM. The IC50 (BOKU) was 0.137 µM, the IC50 (AGS) was 0.503 µM and the IC50 (DMS-153) was 165 µM. It also gave an IC50 (769-P) of 0.123 µM, an IC50 (NCI-H2009) of 2.56 µM and an IC50 (DK-MG) of 85.8 µM. The IC50 (CAL-27) was 8.07 µM, the IC50 (HCC1806) was 0.00854 µM and the IC50 (KMS-12-PE) was 2530 µM. For the same sequence, the IC50 (ESS-1) was 0.187 µM, the IC50 (MKN-45) was 0.0248 µM and the IC50 (CAL-72) was 580 µM.
